From patent publication US20240366611A1, “METHODS OF TREATING A DISEASE OR DISORDER” (Ascentage Pharma (Suzhou) Co., Ltd., priority 2021, published 2024)

What was measured:
[1] = test system: H3K27me3 in PBMC monocytes; assay: H3K27me3 level in PBMC monocytes (FACS, H3K27me3/H3 ratio); assay type: in vivo, CD-1 mice; conditions: vs vehicle
Method: Female CD-1 mice (8 weeks old) were housed and handled in a temperature-controlled environment with a 12-h light/12-h dark cycle. A total of 25 mice were assigned to 5 groups by randomization based on body weight, followed by 5 days of treatment with vehicle (po, qd), 3 mg/kg Cpd. 73 (po, qd), 10 mg/kg Cpd. 73 (po, qd), 30 mg/kg Cpd. 73 (po, qd), or 90 mg/kg Cpd. 73 (po, qd). The protocols and procedures involving the care and use of animals were approved by the Institutional Animal Care and Use Committee (IACUC) of WuXiAppTec (Shanghai) Co., Ltd. (Shanghai, China).
Mice were euthanatized 4 hours post the last dose. Whole blood and bone marrow were collected. Bone marrow cells were flushed from femur and tibia with IMDM+/+ (IMDM, 10% heat inactivated FBS, 100 U/mL penicillin and 100 μg/mL streptomycin). Aggregate was removed by passing through 40 μm cell strainer. 5 mL DPBS was used to pellet the cells after centrifugation, and the cell number was counted. Whole blood was added with 1×RBC lysis buffer remove RBC (whole blood: 1×RBC lysis buffer=1:9), and mononuclear cells were collected by centrifugation. The cells were then washed with 1×DPBS for once and resuspended in 3 ml DPBS after centrifugation followed by cell number counting.
Bone marrow cells were stained with FITC-conjugated anti-mouse TER-119 antibody (Thermo Fisher, 11-5921-82) and eFluor 506-conjugated anti-mouse CD45 antibody (Thermo Fisher, 69-0451-82). TER-119+ cells were erythroid lineage cells. PBMC were stained with eFlour 450-conjugated anti-mouse CD11b antibody (Invitrogen, 48-0112-82), PerCP-eFluor710-conjugated anti-mouse CD3 antibody (Invitrogen, 46-0032-82), eFluor 506-conjugated anti-mouse CD45 antibody (Thermo Fisher, 69-0451-82). CD45+CD3−CD11b+ cells were monocytes from PBMC.
After washing, centrifugation and fixation, the cells were permeabilized and further incubated with antibodies of H3K27m3 (Tri-Methyl-Histone H3 (Lys27) (C36B11) Rabbit mAb (PE Conjugate), CST, 40724S) and H3 (Histone H3 (D1H2) XP® Rabbit mAb (Alexa Fluor®647 Conjugate), CST, 12230S), followed by FACS analysis to quantify the mean fluorescence intensity of target cells. The ratio between the fluorescence intensity of H3K27me3 and H3 were used to reflect the level of H3K27me3 in the cells.

[2] = test system: HBG mRNA in human CD34+ HSC; assay: HBG mRNA level in human CD34+ HSC (qRT-PCR); assay type: cell-based; conditions: 7 days of treatment
Method: Human cord blood CD34+ hematopoietic stem cells (HSC) were first expanded in the expansion medium (StemSpan SFEM II+StemSpan CD34 Expansion Supplement) to achieve the desired number of cells, and then differentiated in differentiation medium (StemSpan SFEM II+StemSpan Erythroid Expansion Supplement (100×)) for three days without drug treatment. Various concentrations of Cpd. 73 were added on the fourth day of differentiation and further incubated with the cells for another 7 days. 33 mM Hydroxyurea was used as the control.
After 7 days of treatment, the cells were collected. Total RNA was isolated using Trizol LS reagent (Invitrogen-10296028) and 1 μg RNA of each sample was reverse transcribed into cDNA using High Capacity cDNA Reverse Transcription Kit (AB (Applied Biosystems)-4374966), according to the manufacturer's instructions. Quantitative RT-PCR (qRT-PCR) was performed using an Applied Biosystems QuantStudio 7 Flex system with the primer pairs shown as below: hHBG-mRNA-F1 (5′-[…]-3′) and hHBG-mRNA-R1 (5′-TCACTCAGCTGGGCAAAGG-3′). […] The HBG mRNA level were 1.09-, 2.49-, 7.84-, 9.69- and 12.2-folds of the vehicle group when the cells were treated with 0.01 μM, 0.03 μM, 0.1 μM, 0.3 μM and 1.0 μM Cpd. 73 respectively. […] 73 which increased HBG mRNA by 12.2 folds (p<0.0001, vs. vehicle). The HBG mRNA level of cells treated with 33 mM Hydroxyurea, an approved medicine for SCD, was 6.46-folds of the vehicle group.

[3] = test system: DSS induced IBD in C57BL/6 mice; assay: DSS induced inflammatory bowel disease (IBD) model; assay type: in vivo; conditions: 90 mg/kg po qd day 0 to day 7
From the text: Female C57BL/6 mice (8 weeks old) were obtained from Beijing Vital River Laboratory Animal Co. Ltd. Animals were housed and handled in a temperature-controlled environment with a 12-h light/12-h dark cycle. A total of 30 mice were assigned to 3 groups by randomization based on body weight.
On Day 0, colitis was induced by administration of 3% DSS (dextran sodium sulfate, molecular weight 36,000-50,000) in drinking water ad libitum for 8 days. 8-week-old mice were divided into 3 groups: Group 2, DSS treatment group (vehicle, po, qd, from day 0 to day 7); Group 3, DSS with 90 mg/kg Cpd. 73 (po, qd, from day 0 to day 7); and the Group 1 (G1) Naive group, the mice were provided drinking water without DSS. The protocols and procedures involving the care and use of animals were approved by the Institutional Animal Care and Use Committee (IACUC) at Wuxi Apptec (Shanghai, China).
At the end of the study, the animals were euthanized, dissected and the entire colon was quickly removed and gently cleared of feces.
At the end of the study (day 8), all the animals were sacrificed by CO2. The colon was Swiss-rolled and fixed with neutralized PFA followed by H&E staining. After that, the pathologists from WuXi clinical pathological analysis platform, who were blinded to animal ID, reviewed the H&E staining and scored. […]

CC(C)N1Cc2cc(C(F)(F)F)ncc2-c2cnc(NCc3c(F)ccc4c3CCO4)n3cnc(c23)C1=O [Cpd. 73, 12-(((5-fluoro-2,3-dihydrobenzofuran-4-yl)methyl)amino)-4-isopropyl-7-(trifluoromethyl)-4,5-dihydro-3H-2,4,8,11,12a-pentaazabenzo[4,5]cycloocta[1,2,3-cd]inden-3-one]
percent of decrease of H3K27me3 level ([1]; 3 mg/kg po qd×5 days): 17.9% | percent of decrease of H3K27me3 level ([1]; 10 mg/kg po qd×5 days): 40.5% | percent of decrease of H3K27me3 level ([1]; 30 mg/kg po qd×5 days): 8.8% | percent of decrease of H3K27me3 level ([1]; 90 mg/kg po qd×5 days): 41.2% | HBG mRNA level, folds of the vehicle group ([2]; 0.01 μM): 1.09 folds | HBG mRNA level, folds of the vehicle group ([2]; 0.03 μM): 2.49 folds | HBG mRNA level, folds of the vehicle group ([2]; 0.1 μM): 7.84 folds | HBG mRNA level, folds of the vehicle group ([2]; 0.3 μM): 9.69 folds | HBG mRNA level, folds of the vehicle group ([2]; 1.0 μM, maximal effect, p<0.0001 vs vehicle): 12.2 folds | pathological score (H&E, colon) ([3]; day 8, vehicle 10.10±0.18): 8.30±0.54 | colon density (colon weight/colon length) ([3]; vehicle 50.88±2.53): 41.86±2.57
